Results on one compound are retold here after patent US6436365B2, “Process for therapeutic treatment of proliferative diseases” (Schering Aktiengesellschaft, priority 1997, dated 2002).

Data set [1] in a line: Topical administration via coronary perfusion/infusion catheter on arteriosclerotic lesion in the carotid artery, gamma camera measurement of activity at the lesion. Type of data set: in vivo, white New Zealand rabbit. The note with it: for % of the dose at the lesion (activity at the lesion as proportion of total activity in the animal): Example 1, rabbit no. 1708, 0.48 mCi in 0.85 ml; for % of the dose at the lesion (activity in the lesion as proportion of total activity in the animal): Example 2, rabbit no. 1856, 1.91 mCi in 1.0 ml. How it is done: The test animal, a white New Zealand rabbit (internal animal identification no.: 1708, male, 3.7 kg of body weight), was prepared 4 weeks before the actual administration experiment:
Under anesthesia (Rompun/Ketavet 1:2, 1 ml/kg of body weight, i.m. administration), the endothelium was damaged with a 2F Fogarthy balloon catheter in the arteria carotis dextra (balloon denudation). Then, the animal received a special diet with an addition of 0.2% cholesterol. The test animal developed an arteriosclerotic lesion on the balloon-denuded spot created by this pretreatment.
Topical administration of HMPAO that was labeled with technetium 99m was carried out on the anesthetized test animal (anesthesia type s.o.) via a coronary perfusion/infusion catheter (dispatch 3.0, Xtra slippery coating, manufacturer: Boston Scientific Corporation, Ratingen) directly on the lesion in the carotid artery. The radioactive dose of 0.48 mCi (=17.76 MBq) was administered in a volume of 0.85 ml.
During the entire experiment, the test animal was under a gamma camera (Elscint SP4 HR) to measure the dispersion of radioactivity in the body. The activity at the lesion was set as a proportion of the total activity (measured at this time in the animal). In the case of this test animal, there was found:
The test animal, a white New Zealand rabbit (internal animal identification no.: 1856, male, 3.3 kg of body weight), was prepared 4 weeks before the actual administration experiment as follows:
The topical administration of the HMPAO that was labeled with technetium 99m was carried out on the anesthetized test animal (anesthesia type s.o.) via a coronary perfusion/infusion catheter (dispatch 3.0, Xtra slippery coating, manufacturer: Boston Scientific Corporation, Ratingen) directly on the lesion in the carotid artery. The radioactive dose of 1.91 mCi (=70.67 MBq) was administered in a volume of 1.0 ml (flushing with 0.3 ml of physiological saline solution).
During the entire experiment, the test animal was under a gamma camera (Elscint SP4 HR) to measure the dispersion of radioactivity in the body. The activity in the lesion was set as a proportion of the total activity (measured at this time in the animal).

Data set [2] is described as follows: Topical administration via microperforated balloon catheter after balloon denudation of the infraranal aorta, gamma camera measurement of activity in the lesion. It counts as in vivo, white New Zealand rabbit. How it is done: The test animal was a white New Zealand rabbit (internal animal identification no.: 1584, male, 3.4 kg of body weight).
Under anesthesia (Rompun/Ketavet 1:2, 1 ml/kg of body weight, i.m. administration), the endothelium was damaged with a balloon catheter in the infraranal aorta (balloon denudation). Then, over a period of 5 minutes, technetium 99m-labeled HMPAO was administered to the test animal via a microperforated balloon catheter (4 mm Match-35 PTA, Schneider Company, FRG). The radioactive dose of 0.64 mCi (=23.68 MBq) was administered in a volume of 1 ml.
During the entire experiment, the test animal was under a gamma camera (Elscint SP4 HR) to measure the dispersion of radioactivity in the body. The activity in the lesion was set as a proportion of the total activity (measured at this time in the animal). In the case of this test animal, there was found:
The test animal was a white New Zealand rabbit (internal animal identification no.: 1587, male, 3.5 kg of body weight).
Under anesthesia (Rompun/Ketavet 1:2, 1 ml/kg of body weight, i.m. administration), the endothelium was damaged with a balloon catheter in the infraranal aorta (balloon denudation). Then, over a period of 5 minutes, technetium 99m-labeled HMPAO was administered to the test animal via a microperforated balloon catheter (4 mm Match-35 PTA, Schneider Company, FRG). The radioactive dose of 1.18 mCi (=43.66 MBq) was administered in a volume of 1 ml.
The test animal was a white New Zealand rabbit (internal animal identification no.: 1586, male, 3.3 kg of body weight).
Under anesthesia (Rompun/Ketavet 1:2, 1 ml/kg of body weight, i.m. administration), the endothelium was damaged with a balloon catheter in the infraranal aorta (balloon denudation). Then, over a period of 5 minutes, technetium 99m-labeled HMPAO was administered to the test animal via a microperforated balloon catheter (4 mm Match-35 PTA, Schneider Company, FRG). The radioactive dose of 0.45 mCi (=16.65 MBq) was administered in a volume of 1 ml.

With `C/C(=N\O)C(C)NCC(C)(C)CNC(C)/C(C)=N/O` (stereo not drawn) [Example 99mTc-HMPAO, metal not drawn], the “% of the dose at the lesion (activity at the lesion as proportion of total activity in the animal)” value is given as 55.38% in data set [1] (5 minutes post administration), 46.78% in data set [1] (4 hours post administration) and 21.45% in data set [1] (24 hours post administration). Moreover, the “% of the dose at the lesion (activity in the lesion as proportion of total activity in the animal)” value in data set [1] (5 minutes post administration) is 40.74%; in data set [1] (4 hours post administration) it was 35.13%; in data set [1] (24 hours post administration), 23.69%; in data set [2] (5 minutes post administration, Example 3, rabbit no. 1584, 0.64 mCi in 1 ml), 38.45%; in data set [2] (5 minutes post administration, Example 4, rabbit no. 1587, 1.18 mCi in 1 ml), 37.06%; in data set [2] (5 minutes post administration, Example 5, rabbit no. 1586, 0.45 mCi in 1 ml) it was 45.56%. The “% of the dose at the lesion (activity in the lesion as proportion of total activity in the animal)” value worked out at 35.64% in data set [2] (4 hours post administration, Example 3, rabbit no. 1584, 0.64 mCi in 1 ml); 32.03% in data set [2] (4 hours post administration, Example 4, rabbit no. 1587, 1.18 mCi in 1 ml); 36.39% in data set [2] (4 hours post administration, Example 5, rabbit no. 1586, 0.45 mCi in 1 ml); 16.63% in data set [2] (24 hours post administration, Example 3, rabbit no. 1584, 0.64 mCi in 1 ml); 20.01% in data set [2] (24 hours post administration, Example 4, rabbit no. 1587, 1.18 mCi in 1 ml); 15.24% in data set [2] (24 hours post administration, Example 5, rabbit no. 1586, 0.45 mCi in 1 ml).
